The source of these data is PubChem BioAssay AID434940 (The Scripps Research Institute Molecular Screening Center, 2010).

This assay concerns U3A STAT3-luciferase reporter, IL-6 stimulated, luminescence. In words: enhancement of STAT3 luciferase transcription – U3A cells, luminescence, dose response, powder samples, counter-screen for STAT1 activator project, late-stage follow-up (AID 434940).

pEC50: −log10 of the molar value. The source made the active and inactive calls.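 How the source made its calls: active means STAT3 activation with EC50 of 10 µM or lower; inactive means EC50 above 10 µM or none.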

Turning to `COc1ccc2[nH]c3c(c2c1)CCn1c-3nc2ccccc2c1=O`, the EC50 was > 18.6 µM (inactive).

For the compound `COc1ccc(-c2cc(C)nc3c(-c4ccccc4)cnn23)cc1`, the EC50 is > 55.7 µM (inactive).

In the case of `COc1ccc(-c2csc(N3C(=O)CNC3=S)n2)cc1`, the EC50 is > 55.7 µM (inactive).

With `Cc1cc(-c2ccncc2)n2ncc(-c3ccccc3)c2n1`, the EC50 was > 55.7 µM (inactive). The same measure, in the same setting: to `O=C(/C=C/Nc1ccccc1F)c1ccc(Br)cc1` belongs > 55.7 µM (inactive). For the compound `CCN(CC)c1ccc2cc(C(=O)Nc3ccccn3)c(=O)oc2c1`, the pEC50 is 6.09. For the compound `Cc1nnc(SCC(=O)Nc2ccc(-c3nc4ccccc4s3)cc2)s1`, the EC50 was > 55.7 µM (inactive). Take `Cc1ccc(C(=O)Nc2nc3ccccc3s2)s1`: the EC50 was > 55.7 µM (inactive).

Turning to `CC(=O)NC(=S)Nc1sc2c(c1C#N)CCCCC2`, the EC50 was > 55.7 µM (inactive). Still for that read-out and setting: to `O=C(Nc1nc2ccccc2s1)c1cc2ccccc2s1` belongs > 55.7 µM (inactive).
